Experimental data from US12630600B2 (MEDIMMUNE LIMITED, priority 2022, dated 2026).
Like-named read-outs stand apart in the source and are kept apart here. Blank lines part the entries; values can stand above or below the molecule they belong to. Starred links: 1 amine or outer side, 2 acyl side, 3 side chain; linkers in the order of their positions; H or OH if unused. Non-standard residues stand in square brackets, D forms with d. Residues, ends and D or L forms follow the SMILES beside them. Groups on a side chain read outwards from the residue. *: point of attachment. C20 diacid = O=C(O)CCCCCCCCCCCCCCCCCCC(=O)*; C18 diacid = O=C(O)CCCCCCCCCCCCCCCCC(=O)*; γGlu = O=C(O)[C@H](CCC(=O)[*:2])N[*:1]; Stearoyl = CCCCCCCCCCCCCCCCCC(=O)*; Palmitoyl = CCCCCCCCCCCCCCCC(=O)*; αMeF = C[C@](N)(Cc1ccccc1)C(=O)O; PEG2 = NCCOCCOCCC(=O)O; AEEA = NCCOCCOCC(=O)O; Aib = CC(C)(N)C(=O)O

Experiments:
[1] = target: T1, human glucagon receptor (hGCGR) (Homo sapiens, UniProt P47871); experiment: cAMP production (HTRF) in CHO cells expressing human glucagon receptor; assay type: cell-based; conditions: read-out: hGluc-R EC50
T1 construct: expressed in transfected cells; host or cells: CHO
Experimental: Cells were re-suspended in assay buffer at a batch-dependent optimized concentration (typically hGLP-1R cells at 1×10^5 cells/mL, hGCGR cells at 2×10^5 cells/mL).
Cells were added to the assay plate using a multidrop dispenser and incubated at room temperature for 30 minutes before measuring the cAMP level using a cAMP dynamic 2 homogeneous time resolved Fluorescence (HTRF) kit (Cisbio Bioassays #62AM4PEJ) following the two-step protocol as per manufacturer's recommendations. In brief, anti-cAMP cryptate (donor fluorophore) and cAMP-d2 (acceptor fluorophore) were made up separately by diluting each 1 in 20 in conjugate and lysis buffer provided in the kit. Anti-cAMP cryptate was added to all wells of the assay plate, followed by cAMP-d2 added to all wells except non-specific binding (NSB) wells (to which conjugate and lysis buffer was added).
Data was transformed to % Delta F as described in the manufacturer's guidelines and analyzed by 4-parameter logistic fit to determine EC50 values.

[2] = target: T2, human GLP-1 receptor (hGLP-1R) (Homo sapiens, UniProt P43220); experiment: cAMP production (HTRF) in CHO cells expressing human GLP-1 receptor; assay type: cell-based; conditions: for % Relative Potency Ratio: % GLP-1R activity relative to GLP-1 / % GlucR activity relative to glucagon
T2 construct: expressed in transfected cells; host or cells: CHO

[3] = Table 6, modification at position 17, CHO cells expressing hGCGR, geometric mean
[4] = Table 9, peptides modified at position 10, geometric mean, CHO cells

T1 sequence (P47871 26-477): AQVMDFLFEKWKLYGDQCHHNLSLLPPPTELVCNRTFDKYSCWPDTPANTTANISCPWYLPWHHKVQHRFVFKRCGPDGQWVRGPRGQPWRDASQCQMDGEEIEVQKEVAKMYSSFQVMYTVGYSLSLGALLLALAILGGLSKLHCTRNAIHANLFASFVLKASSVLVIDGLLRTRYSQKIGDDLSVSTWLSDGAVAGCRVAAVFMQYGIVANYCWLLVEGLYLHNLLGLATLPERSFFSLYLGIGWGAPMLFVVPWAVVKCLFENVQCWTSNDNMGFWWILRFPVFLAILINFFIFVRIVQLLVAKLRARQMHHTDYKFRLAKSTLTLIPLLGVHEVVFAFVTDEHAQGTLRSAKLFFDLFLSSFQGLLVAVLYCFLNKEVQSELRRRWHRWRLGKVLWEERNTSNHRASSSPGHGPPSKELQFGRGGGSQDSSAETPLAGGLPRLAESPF
T2 sequence (P43220 24-463): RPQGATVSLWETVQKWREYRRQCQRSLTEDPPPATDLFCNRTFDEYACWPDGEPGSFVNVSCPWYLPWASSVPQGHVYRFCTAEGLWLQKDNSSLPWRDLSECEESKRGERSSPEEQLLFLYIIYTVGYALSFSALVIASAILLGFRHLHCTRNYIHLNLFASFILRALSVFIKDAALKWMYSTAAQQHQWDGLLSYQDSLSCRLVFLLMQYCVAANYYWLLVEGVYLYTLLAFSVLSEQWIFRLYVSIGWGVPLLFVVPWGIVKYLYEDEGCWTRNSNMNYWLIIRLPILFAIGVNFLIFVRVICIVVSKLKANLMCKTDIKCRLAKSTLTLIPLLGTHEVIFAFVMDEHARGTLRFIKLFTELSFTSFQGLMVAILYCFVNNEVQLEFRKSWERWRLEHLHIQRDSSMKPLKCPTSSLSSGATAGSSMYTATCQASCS

Structure (SMILES): CCCCCCCCCCCCCCCC(=O)N[C@@H](CCC(=O)NCCOCCOCCC(=O)NCCOCCOCCC(=O)NCCCC[C@H](NC(=O)[C@H](CC(=O)O)NC(=O)[C@H](CO)NC(=O)[C@@H](NC(=O)[C@](C)(Cc1ccccc1)NC(=O)[C@H](CO)NC(=O)CNC(=O)[C@H](CCC(N)=O)NC(=O)C(C)(C)NC(=O)[C@@H](N)Cc1c[nH]cn1)[C@@H](C)O)C(=O)N[C@@H](CO)C(=O)N[C@@H](CCCCN)C(=O)N[C@H](C(=O)N[C@@H](CC(C)C)C(=O)N[C@@H](CC(=O)O)C(=O)N[C@@H](CO)C(=O)N[C@@H](CCCNC(=N)N)C(=O)N[C@@H](C)C(=O)N[C@@H](C)C(=O)N[C@@H](CCC(N)=O)C(=O)N[C@@H](CC(=O)O)C(=O)N[C@@](C)(Cc1ccccc1)C(=O)N[C@H](C(=O)N[C@@H](CCC(=O)O)C(=O)N[C@@H](Cc1c[nH]c2ccccc12)C(=O)N[C@H](C(=O)N[C@@H](C)C(=O)N[C@@H](CC(N)=O)C(=O)N[C@H](C(N)=O)[C@@H](C)O)[C@@H](C)CC)C(C)C)[C@@H](C)CC)C(=O)O [Peptide 396] (H-H[Aib]QGS[αMeF]TSDK([PEG2-PEG2-γGlu-Palmitoyl])SKILDSRAAQD[αMeF]VEWIANT-NH2)
EC50 [1, 4]: 0.0118 nM | % Relative Potency Ratio ([2]; Table 9): 40.2

Structure (SMILES): CC(C)C[C@H](NC(=O)[C@H](Cc1c[nH]c2ccccc12)NC(=O)[C@H](CCCNC(=N)N)NC(=O)[C@@H](NC(=O)[C@H](Cc1ccccc1)NC(=O)[C@H](CC(=O)O)NC(=O)[C@H](CCCNC(=N)N)NC(=O)[C@H](C)NC(=O)[C@H](CCCNC(=N)N)NC(=O)[C@H](CCCCNC(=O)CC[C@H](NC(=O)CC[C@H](NC(=O)COCCOCCNC(=O)COCCOCCNC(=O)CC[C@H](NC(=O)CC[C@H](NC(=O)CCCCCCCCCCCCCCCCC(=O)O)C(=O)O)C(=O)O)C(=O)O)C(=O)O)NC(=O)[C@H](CO)NC(=O)[C@H](CC(=O)O)NC(=O)[C@H](CC(C)C)NC(=O)[C@](C)(Cc1ccccc1)NC(=O)[C@H](CCCCN)NC(=O)[C@H](CO)NC(=O)[C@@H](NC(=O)[C@H](CC(=O)O)NC(=O)[C@H](CO)NC(=O)[C@@H](NC(=O)[C@H](Cc1ccccc1)NC(=O)[C@@H](NC(=O)CNC(=O)[C@H](CCC(N)=O)NC(=O)C(C)(C)NC(=O)[C@@H](N)Cc1c[nH]cn1)[C@@H](C)O)[C@@H](C)O)C(C)C)C(C)C)C(=O)N[C@@H](CC(C)C)C(=O)N[C@@H](CCC(=O)O)C(=O)NC(C)(C)C(=O)NCC(=O)O [Peptide 144] (H-H[Aib]QGTFTSDVSK[αMeF]LDSK([γGlu-γGlu-AEEA-AEEA-γGlu-γGlu-C18 diacid])RARDFVRWLLE[Aib]G-OH; N-terminus assumed)
EC50 [1, 3]: 0.702 nM

Structure (SMILES): CCCCCCCCCCCCCCCC(=O)N[C@@H](CCC(=O)NCCOCCOCCC(=O)NCCOCCOCCC(=O)NCCCC[C@H](NC(=O)[C@H](CC(=O)O)NC(=O)[C@H](CO)NC(=O)[C@@H](NC(=O)[C@H](Cc1ccccc1)NC(=O)[C@H](CO)NC(=O)CNC(=O)[C@H](CCC(N)=O)NC(=O)C(C)(C)NC(=O)[C@@H](N)Cc1c[nH]cn1)[C@@H](C)O)C(=O)N[C@@H](CO)C(=O)N[C@@H](CCCCN)C(=O)N[C@H](C(=O)N[C@@H](CC(C)C)C(=O)N[C@@H](CC(=O)O)C(=O)N[C@@H](CO)C(=O)N[C@@H](CCCNC(=N)N)C(=O)N[C@@H](C)C(=O)N[C@@H](C)C(=O)N[C@@H](CCC(N)=O)C(=O)N[C@@H](CC(=O)O)C(=O)N[C@@H](Cc1ccccc1)C(=O)N[C@H](C(=O)N[C@@H](CCC(=O)O)C(=O)N[C@@H](Cc1c[nH]c2ccccc12)C(=O)N[C@H](C(=O)N[C@@H](C)C(=O)N[C@@H](CC(N)=O)C(=O)N[C@H](C(N)=O)[C@@H](C)O)[C@@H](C)CC)C(C)C)[C@@H](C)CC)C(=O)O [Peptide 395]
EC50 [1, 4]: 0.00955 nM

Structure (SMILES): CC[C@H](C)[C@H](NC(=O)[C@H](Cc1c[nH]c2ccccc12)NC(=O)[C@H](CCCCNC(=O)CCOCCOCCNC(=O)CCOCCOCCNC(=O)CC[C@H](NC(=O)CC[C@H](NC(=O)CCCCCCCCCCCCCCCCCCC(=O)O)C(=O)O)C(=O)O)NC(=O)[C@@H](NC(=O)[C@H](Cc1ccccc1)NC(=O)[C@H](CC(=O)O)NC(=O)[C@H](CCC(N)=O)NC(=O)[C@H](C)NC(=O)[C@H](C)NC(=O)[C@H](CCC(N)=O)NC(=O)[C@H](CO)NC(=O)[C@H](CC(=O)O)NC(=O)[C@H](CC(C)C)NC(=O)[C@](C)(Cc1ccccc1)NC(=O)[C@H](CCCCN)NC(=O)[C@H](CO)NC(=O)[C@@H](NC(=O)[C@H](CC(=O)O)NC(=O)[C@H](CO)NC(=O)[C@@H](NC(=O)[C@](C)(Cc1ccccc1)NC(=O)[C@H](CO)NC(=O)CNC(=O)[C@H](Cc1c[nH]cn1)NC(=O)C(C)(C)NC(=O)[C@@H](N)Cc1c[nH]cn1)[C@@H](C)O)C(C)C)C(C)C)C(=O)N[C@@H](C)C(=O)N[C@@H](CC(N)=O)C(=O)N[C@H](C(N)=O)[C@@H](C)O [Peptide 355] (H-H[Aib]HGS[αMeF]TSDVSK[αMeF]LDSQAAQDFVK([PEG2-PEG2-γGlu-γGlu-C20 diacid])WIANT-NH2; N-terminus assumed)
% Relative Potency Ratio ([2]; Table 8): 2.2

The remaining lines, values ahead:

EC50 [1, 3]: 0.00777 nM
Structure (SMILES): CCCCCCCCCCCCCCCCCC(=O)N[C@@H](CCC(=O)N[C@@H](CCC(=O)NCCOCCOCCC(=O)NCCOCCOCCC(=O)NCCCC[C@H](NC(=O)[C@H](CO)NC(=O)[C@H](CC(=O)O)NC(=O)[C@H](CC(C)C)NC(=O)[C@](C)(Cc1ccccc1)NC(=O)[C@H](CCCCN)NC(=O)[C@H](CO)NC(=O)[C@@H](NC(=O)[C@H](CC(=O)O)NC(=O)[C@H](CO)NC(=O)[C@@H](NC(=O)[C@](C)(Cc1ccccc1)NC(=O)[C@H](CO)NC(=O)CNC(=O)[C@H](CCC(N)=O)NC(=O)[C@H](CO)NC(=O)[C@@H](N)Cc1c[nH]cn1)[C@@H](C)O)C(C)C)C(=O)N[C@@H](C)C(=O)N[C@@H](C)C(=O)N[C@@H](CCC(N)=O)C(=O)N[C@@H](CC(=O)O)C(=O)N[C@@](C)(Cc1ccccc1)C(=O)N[C@H](C(=O)N[C@@H](CCC(N)=O)C(=O)NC(C)(C)C(=O)N[C@H](C(=O)N[C@@H](C)C(=O)N[C@@H](CC(N)=O)C(=O)N[C@H](C(N)=O)[C@@H](C)O)[C@@H](C)CC)C(C)C)C(=O)O)C(=O)O [Peptide 82] (H-HSQGS[αMeF]TSDVSK[αMeF]LDSK([PEG2-PEG2-γGlu-γGlu-Stearoyl])AAQD[αMeF]VQ[Aib]IANT-NH2; N-terminus assumed)

EC50 ([1]; Table 8, peptides modified at position 24, geometric mean, CHO cells): 0.853 nM | EC50 ([2]; Table 8, peptides modified at position 24, geometric mean, CHO cells, cAMP, read-out: hGLP-1R EC50): 0.156 nM | % Relative Potency Ratio ([2]; Table 8): 10.8
Structure (SMILES): CC[C@H](C)[C@H](NC(=O)C(C)(C)NC(=O)[C@H](CCCCNC(=O)COCCOCCNC(=O)COCCOCCNC(=O)CC[C@H](NC(=O)CC[C@H](NC(=O)CCCCCCCCCCCCCCCCCCC(=O)O)C(=O)O)C(=O)O)NC(=O)[C@@H](NC(=O)[C@](C)(Cc1ccccc1)NC(=O)[C@H](CC(=O)O)NC(=O)[C@H](CCC(N)=O)NC(=O)[C@H](C)NC(=O)[C@H](C)NC(=O)[C@H](CCCNC(=N)N)NC(=O)[C@H](CO)NC(=O)[C@H](CC(=O)O)NC(=O)[C@H](CC(C)C)NC(=O)[C@](C)(Cc1ccccc1)NC(=O)[C@H](CCCCN)NC(=O)[C@H](CO)NC(=O)[C@@H](NC(=O)[C@H](CC(=O)O)NC(=O)[C@H](CO)NC(=O)[C@@H](NC(=O)[C@](C)(Cc1ccccc1)NC(=O)[C@H](CO)NC(=O)CNC(=O)[C@H](Cc1c[nH]cn1)NC(=O)C(C)(C)NC(=O)[C@@H](N)Cc1c[nH]cn1)[C@@H](C)O)C(C)C)C(C)C)C(=O)N[C@@H](C)C(=O)N[C@@H](CC(N)=O)C(=O)N[C@H](C(=O)NCC(=O)NCC(N)=O)[C@@H](C)O [Peptide 376] (H-H[Aib]HGS[αMeF]TSDVSK[αMeF]LDSRAAQD[αMeF]VK([AEEA-AEEA-γGlu-γGlu-C20 diacid])[Aib]IANTGG-NH2; N-terminus assumed)

EC50 [1, 3]: 0.509 nM
Structure (SMILES): CC(C)C[C@H](NC(=O)[C@H](Cc1c[nH]c2ccccc12)NC(=O)[C@H](CCCNC(=N)N)NC(=O)[C@@H](NC(=O)[C@H](Cc1ccccc1)NC(=O)[C@H](CC(=O)O)NC(=O)[C@H](CCCNC(=N)N)NC(=O)[C@H](C)NC(=O)[C@H](CCCNC(=N)N)NC(=O)[C@H](CCCCNC(=O)CC[C@H](NC(=O)CC[C@H](NC(=O)COCCOCCNC(=O)COCCOCCNC(=O)CC[C@H](NC(=O)CC[C@H](NC(=O)CCCCCCCCCCCCCCCCC(=O)O)C(=O)O)C(=O)O)C(=O)O)C(=O)O)NC(=O)[C@H](CO)NC(=O)[C@H](CC(=O)O)NC(=O)[C@H](CC(C)C)NC(=O)[C@](C)(Cc1ccccc1)NC(=O)[C@H](CCCCN)NC(=O)[C@H](CO)NC(=O)[C@@H](NC(=O)[C@H](CC(=O)O)NC(=O)[C@H](CO)NC(=O)[C@@H](NC(=O)[C@H](Cc1ccccc1)NC(=O)[C@@H](NC(=O)CNC(=O)[C@H](CCC(N)=O)NC(=O)C(C)(C)NC(=O)[C@@H](N)Cc1c[nH]cn1)[C@@H](C)O)[C@@H](C)O)C(C)C)C(C)C)C(=O)N[C@@H](CC(C)C)C(=O)N[C@@H](CCC(=O)O)C(=O)NC(C)(C)C(=O)NCC(=O)O [Peptide 136] (H-H[Aib]QGTFTSDVSK[αMeF]LDSK([γGlu-γGlu-AEEA-AEEA-γGlu-γGlu-C18 diacid])RARDFVRWLLE[Aib]G-OH; N-terminus assumed)
